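1) Cells in 96-well plates. 2) Compound, 48 h, 5 concentrations. 3) Linear interpolation between surrounding doses. 4) Unreached endpoint = highest concentration. Definition used: TGI = concentration required for complete inhibition of growth.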
Assays:
Test in all cases: NCI-60 cell line screen, 48 h
HCT-116 colon = tested on: HCT-116 colon
NCI-H460 lung = tested on: NCI-H460 lung
SK-MEL-28 melanoma = tested on: SK-MEL-28 melanoma
TK-10 renal = tested on: TK-10 renal
MOLT-4 leukemia = tested on: MOLT-4 leukemia
HCT-15 colon = tested on: HCT-15 colon
MDA-N = tested on: MDA-N
DU-145 prostate = tested on: DU-145 prostate
NCI-H23 lung = tested on: NCI-H23 lung
SW-620 colon = tested on: SW-620 colon
OVCAR-3 ovarian = tested on: OVCAR-3 ovarian
IGROV1 ovarian = tested on: IGROV1 ovarian
KM12 colon = tested on: KM12 colon
MALME-3M melanoma = tested on: MALME-3M melanoma
HT29 colon = tested on: HT29 colon
786-0 renal = tested on: 786-0 renal
SF-539 CNS = tested on: SF-539 CNS
UO-31 renal = tested on: UO-31 renal
MDA-MB-231 breast = tested on: MDA-MB-231 breast
OVCAR-5 ovarian = tested on: OVCAR-5 ovarian
CCRF-CEM leukemia = tested on: CCRF-CEM leukemia
HS 578T breast = tested on: HS 578T breast
SN12C renal = tested on: SN12C renal
BT-549 breast = tested on: BT-549 breast
SK-MEL-5 melanoma = tested on: SK-MEL-5 melanoma
M14 melanoma = tested on: M14 melanoma
SF-268 CNS = tested on: SF-268 CNS
K-562 leukemia = tested on: K-562 leukemia
HL-60(TB) leukemia = tested on: HL-60(TB) leukemia
RXF 393 renal = tested on: RXF 393 renal
NCI/ADR-RES ovarian = tested on: NCI/ADR-RES ovarian
A549 NSCLC = tested on: A549 NSCLC
ACHN renal = tested on: ACHN renal
SK-MEL-2 melanoma = tested on: SK-MEL-2 melanoma
SF-295 CNS = tested on: SF-295 CNS
UACC-257 melanoma = tested on: UACC-257 melanoma
U251 CNS = tested on: U251 CNS
HOP-62 NSCLC = tested on: HOP-62 NSCLC
CAKI-1 renal = tested on: CAKI-1 renal
HOP-92 NSCLC = tested on: HOP-92 NSCLC
LOX IMVI melanoma = tested on: LOX IMVI melanoma
SNB-75 CNS = tested on: SNB-75 CNS
T-47D breast = tested on: T-47D breast
HCC-2998 colon = tested on: HCC-2998 colon
RPMI-8226 leukemia = tested on: RPMI-8226 leukemia
SK-OV-3 ovarian = tested on: SK-OV-3 ovarian
UACC-62 melanoma = tested on: UACC-62 melanoma
PC-3 prostate = tested on: PC-3 prostate
NCI-H522 lung = tested on: NCI-H522 lung
NCI-H226 lung = tested on: NCI-H226 lung
MDA-MB-435 = tested on: MDA-MB-435
MCF7 breast = tested on: MCF7 breast
OVCAR-8 ovarian = tested on: OVCAR-8 ovarian
OVCAR-4 ovarian = tested on: OVCAR-4 ovarian
COLO 205 colon = tested on: COLO 205 colon
SNB-19 CNS = tested on: SNB-19 CNS
EKVX NSCLC = tested on: EKVX NSCLC
SR leukemia = tested on: SR leukemia
A498 renal = tested on: A498 renal

For `O=C(O)c1ccccc1CC1Cc2ccccc2C1=O` (stereo unspecified), the TGI (HCT-116 colon) was greater than 100 µM, the TGI (NCI-H460 lung) was greater than 100 µM and the TGI (SK-MEL-28 melanoma) was greater than 100 µM. For the same compound, the TGI (TK-10 renal) was greater than 100 µM, the TGI (MOLT-4 leukemia) was greater than 100 µM and the TGI (HCT-15 colon) was greater than 100 µM. It also gave a TGI (MDA-N) greater than 100 µM, a TGI (DU-145 prostate) greater than 100 µM and a TGI (NCI-H23 lung) greater than 100 µM. The TGI (SW-620 colon) was greater than 100 µM, the TGI (OVCAR-3 ovarian) was greater than 100 µM and the TGI (IGROV1 ovarian) was greater than 100 µM. The TGI (KM12 colon) was greater than 100 µM, the TGI (MALME-3M melanoma) was greater than 100 µM and the TGI (HT29 colon) was greater than 100 µM. For the same compound, the TGI (786-0 renal) was greater than 100 µM, the TGI (SF-539 CNS) was greater than 100 µM and the TGI (UO-31 renal) was greater than 100 µM. It also gave a TGI (MDA-MB-231 breast) greater than 100 µM, a TGI (OVCAR-5 ovarian) greater than 100 µM and a TGI (CCRF-CEM leukemia) greater than 100 µM. For the same compound, the TGI (HS 578T breast) was greater than 100 µM, the TGI (SN12C renal) was greater than 100 µM and the TGI (BT-549 breast) was greater than 100 µM. For the same compound, the TGI (SK-MEL-5 melanoma) was greater than 100 µM, the TGI (M14 melanoma) was greater than 100 µM and the TGI (SF-268 CNS) was greater than 100 µM. The TGI (K-562 leukemia) was greater than 100 µM, the TGI (HL-60(TB) leukemia) was greater than 100 µM and the TGI (RXF 393 renal) was greater than 100 µM. For the same compound, the TGI (NCI/ADR-RES ovarian) was greater than 100 µM, the TGI (A549 NSCLC) was greater than 100 µM and the TGI (ACHN renal) was greater than 100 µM. For the same compound, the TGI (SK-MEL-2 melanoma) was greater than 100 µM, the TGI (SF-295 CNS) was greater than 100 µM and the TGI (UACC-257 melanoma) was greater than 100 µM. The TGI (U251 CNS) was greater than 100 µM, the TGI (HOP-62 NSCLC) was greater than 100 µM and the TGI (CAKI-1 renal) was greater than 100 µM. For the same compound, the TGI (HOP-92 NSCLC) was greater than 100 µM, the TGI (LOX IMVI melanoma) was greater than 100 µM and the TGI (SNB-75 CNS) was greater than 100 µM. For the same compound, the TGI (T-47D breast) was greater than 100 µM, the TGI (HCC-2998 colon) was greater than 100 µM and the TGI (RPMI-8226 leukemia) was greater than 100 µM. It also gave a TGI (SK-OV-3 ovarian) greater than 100 µM, a TGI (UACC-62 melanoma) greater than 100 µM and a TGI (PC-3 prostate) greater than 100 µM. It also gave a TGI (NCI-H522 lung) greater than 100 µM, a TGI (NCI-H226 lung) greater than 100 µM and a TGI (MDA-MB-435) greater than 100 µM. For the same compound, the TGI (MCF7 breast) was greater than 100 µM, the TGI (OVCAR-8 ovarian) was greater than 100 µM and the TGI (OVCAR-4 ovarian) was greater than 100 µM. For the same compound, the TGI (COLO 205 colon) was greater than 100 µM, the TGI (SNB-19 CNS) was greater than 100 µM and the TGI (EKVX NSCLC) was greater than 100 µM. It also gave a TGI (SR leukemia) greater than 100 µM.
For `CC(C)C(C)/C=C\C(C)C1CCC2C3=CC=C4CC(O)CCC4(C)C3CCC21C` (stereo unspecified), the TGI (HCT-116 colon) was greater than 57.2 µM, the TGI (NCI-H460 lung) was greater than 53.3 µM and the TGI (SK-MEL-28 melanoma) was greater than 60.5 µM. For the same compound, the TGI (TK-10 renal) was greater than 100 µM, the TGI (MOLT-4 leukemia) was 58.3 µM and the TGI (HCT-15 colon) was greater than 71.3 µM. For the same compound, the TGI (MDA-N) was greater than 70.5 µM, the TGI (DU-145 prostate) was greater than 100 µM and the TGI (NCI-H23 lung) was greater than 100 µM. The TGI (SW-620 colon) was greater than 72.3 µM, the TGI (OVCAR-3 ovarian) was greater than 80.5 µM and the TGI (IGROV1 ovarian) was greater than 54.3 µM. For the same compound, the TGI (KM12 colon) was greater than 100 µM, the TGI (MALME-3M melanoma) was greater than 50.6 µM and the TGI (HT29 colon) was greater than 55.8 µM. The TGI (786-0 renal) was greater than 60.7 µM, the TGI (SF-539 CNS) was greater than 64 µM and the TGI (UO-31 renal) was greater than 79 µM. For the same compound, the TGI (MDA-MB-231 breast) was greater than 61.3 µM, the TGI (OVCAR-5 ovarian) was greater than 100 µM and the TGI (CCRF-CEM leukemia) was greater than 66.9 µM. It also gave a TGI (HS 578T breast) greater than 64.2 µM, a TGI (SN12C renal) greater than 60.2 µM and a TGI (BT-549 breast) greater than 85.6 µM. For the same compound, the TGI (SK-MEL-5 melanoma) was 62.3 µM, the TGI (M14 melanoma) was greater than 67.7 µM and the TGI (SF-268 CNS) was greater than 70.2 µM. The TGI (K-562 leukemia) was greater than 100 µM, the TGI (HL-60(TB) leukemia) was greater than 77.7 µM and the TGI (RXF 393 renal) was greater than 58.7 µM. For the same compound, the TGI (NCI/ADR-RES ovarian) was greater than 70.7 µM, the TGI (A549 NSCLC) was greater than 100 µM and the TGI (ACHN renal) was greater than 65.7 µM. It also gave a TGI (SK-MEL-2 melanoma) greater than 100 µM, a TGI (SF-295 CNS) greater than 100 µM and a TGI (UACC-257 melanoma) greater than 100 µM. For the same compound, the TGI (U251 CNS) was greater than 47.7 µM, the TGI (HOP-62 NSCLC) was greater than 79.5 µM and the TGI (CAKI-1 renal) was greater than 60.4 µM. It also gave a TGI (HOP-92 NSCLC) of 70.2 µM, a TGI (LOX IMVI melanoma) greater than 57.2 µM and a TGI (SNB-75 CNS) greater than 73.1 µM. The TGI (T-47D breast) was greater than 100 µM, the TGI (RPMI-8226 leukemia) was greater than 100 µM and the TGI (SK-OV-3 ovarian) was greater than 100 µM. For the same compound, the TGI (A498 renal) was greater than 100 µM, the TGI (UACC-62 melanoma) was greater than 66.6 µM and the TGI (PC-3 prostate) was greater than 100 µM. For the same compound, the TGI (NCI-H522 lung) was greater than 100 µM, the TGI (NCI-H226 lung) was greater than 65.3 µM and the TGI (MDA-MB-435) was greater than 83.5 µM. For the same compound, the TGI (MCF7 breast) was greater than 100 µM, the TGI (OVCAR-8 ovarian) was greater than 53.9 µM and the TGI (OVCAR-4 ovarian) was greater than 100 µM. It also gave a TGI (COLO 205 colon) greater than 61.6 µM, a TGI (SNB-19 CNS) greater than 100 µM and a TGI (EKVX NSCLC) greater than 64.8 µM. For the same compound, the TGI (SR leukemia) was greater than 61.8 µM.

— PubChem BioAssay (NCI)
